*1 amine or outer side, *2 acyl side, *3 side chain or, on linkers, in order; H or OH if unused. Where a SMILES comes first, the peptide text is derived from it. Bridges are numbered along the chain shown (N, C = ends). [ ]: non-standard residue; d: D form. Trp(2-yl) = O=C([C@H](Cc1c([*:3])[nH]c2ccccc12)N[*:1])[*:2]; Leu(4R-OH,5-OH) = C[C@](O)(CO)C[C@H](N)C(=O)O; cisHyp = O=C(O)[C@@H]1C[C@H](O)CN1
Species: Rattus norvegicus
Experiment: Open TG-GATES - Regimen: Single
Type: toxicity, organism-based, Sprague-Dawley
Design: regimen Single, gender Male, age 6 weeks
Conditions: in vivo, ip, 1 mg/kg, route intraperitoneal injection, dose level High; for APTT / Bas / Eos / Fbg / Hb / Ht / Lym / MCH / MCHC / MCV / Mono / Neu / PT / Plat / RBC / Ret / WBC: tissue Blood; for KIDNEY_L / KIDNEY_R / KIDNEY_TOTAL: tissue Kidney; for LIVER: tissue Liver; for A/G / ALP / ALT / AST / BUN / CRE / Ca / Cl / DBIL / GLC / IP / K / LDH / Na / PL / RALB / TBIL / TC / TG / TP / gamma-GTP: tissue Plasma

Compound: C[C@@H]1NC(=O)[C@H](C[C@@](C)(O)CO)NC(=O)[C@@H]2Cc3c([nH]c4ccccc34)SC[C@H](NC(=O)[C@@H]([C@H](C)O)NC1=O)C(=O)N1C[C@@H](O)C[C@H]1C(=O)N[C@@H](C)C(=O)N2 [PHALLOIDIN] (cyclo(A[dT]C[cisHyp]A[Trp(2-yl)][Leu(4R-OH,5-OH)]); thioether 3-6)
- TERMINAL_BW (3 h): 211.9 g
- APTT (3 h): 21.8 s
- Bas (3 h): 0%
- Eos (3 h): 0%
- Fbg (3 h): 259.6 mg/dL
- Hb (3 h): 12.4 g/dL
- Ht (3 h): 39.5%
- Lym (3 h): 73.8%
- MCH (3 h): 20 pg
- MCHC (3 h): 31.5%
- MCV (3 h): 63.3 fL
- Mono (3 h): 2.6%
- Neu (3 h): 22.6%
- PT (3 h): 15.9 s
- Plat (3 h): 108.1 x10_4/uL
- RBC (3 h): 623.8 x10_4/ul
- Ret (3 h): 7.7%
- WBC (3 h): 66 x10_2/uL
- KIDNEY_L (3 h): 1 g
- KIDNEY_R (3 h): 1 g
- KIDNEY_TOTAL (3 h): 2 g
- LIVER (3 h): 9.1 g
- A/G (3 h): 1.2
- ALP (3 h): 1810.8 IU/L
- ALT (3 h): 49.6 IU/L
- AST (3 h): 110 IU/L
- BUN (3 h): 12 mg/dL
- CRE (3 h): 0.2 mg/dL
- Ca (3 h): 10.4 mg/dL
- Cl (3 h): 107.8 meq/L
- DBIL (3 h): 0.006 mg/dL
- GLC (3 h): 184.8 mg/dL
- IP (3 h): 8.6 mg/dL
- K (3 h): 4 meq/L
- LDH (3 h): 235.2 IU/L
- Na (3 h): 139.6 meq/L
- PL (3 h): 125.8 mg/dL
- RALB (3 h): 2.7 g/dL
- TBIL (3 h): 0.012 mg/dL
- TC (3 h): 78.6 mg/dL
- TG (3 h): 36.2 mg/dL
- TP (3 h): 4.9 g/dL
- gamma-GTP (3 h): 1.6 IU/L
- TERMINAL_BW (6 h): 210 g
- APTT (6 h): 22.3 s
- Bas (6 h): 0%
- Eos (6 h): 0.2%
- Fbg (6 h): 286.6 mg/dL
- Hb (6 h): 12.5 g/dL
- Ht (6 h): 39.2%
- Lym (6 h): 79.6%
- MCH (6 h): 20 pg
- MCHC (6 h): 31.9%
- MCV (6 h): 62.6 fL
- Mono (6 h): 2%
- Neu (6 h): 17.4%
- PT (6 h): 15.9 s
- Plat (6 h): 111.9 x10_4/uL
- RBC (6 h): 626 x10_4/ul
- Ret (6 h): 6.8%
- WBC (6 h): 90.8 x10_2/uL
- KIDNEY_L (6 h): 0.9 g
- KIDNEY_R (6 h): 1 g
- KIDNEY_TOTAL (6 h): 1.9 g
- LIVER (6 h): 9.2 g
- A/G (6 h): 1.3
- ALP (6 h): 1613.8 IU/L
- ALT (6 h): 56.6 IU/L
- AST (6 h): 114.6 IU/L
- BUN (6 h): 14.8 mg/dL
- CRE (6 h): 0.2 mg/dL
- Ca (6 h): 10.3 mg/dL
- Cl (6 h): 106.2 meq/L
- DBIL (6 h): 0 mg/dL
- GLC (6 h): 186.4 mg/dL
- IP (6 h): 7.6 mg/dL
- K (6 h): 3.9 meq/L
- LDH (6 h): 232 IU/L
- Na (6 h): 142 meq/L
- PL (6 h): 141 mg/dL
- RALB (6 h): 2.9 g/dL
- TBIL (6 h): 0.004 mg/dL
- TC (6 h): 90.4 mg/dL
- TG (6 h): 65.8 mg/dL
- TP (6 h): 5.1 g/dL
- gamma-GTP (6 h): 1.8 IU/L
- TERMINAL_BW (9 h): 208.3 g
- APTT (9 h): 20.7 s
- Bas (9 h): 0%
- Eos (9 h): 0.4%
- Fbg (9 h): 291.6 mg/dL
- Hb (9 h): 12.3 g/dL
- Ht (9 h): 39.3%
- Lym (9 h): 80.6%
- MCH (9 h): 20.2 pg
- MCHC (9 h): 31.4%
- MCV (9 h): 64.4 fL
- Mono (9 h): 2.4%
- Neu (9 h): 15.4%
- PT (9 h): 15.3 s
- Plat (9 h): 114.2 x10_4/uL
- RBC (9 h): 610.4 x10_4/ul
- Ret (9 h): 7.8%
- WBC (9 h): 75 x10_2/uL
- KIDNEY_L (9 h): 0.9 g
- KIDNEY_R (9 h): 0.9 g
- KIDNEY_TOTAL (9 h): 1.9 g
- LIVER (9 h): 9.2 g
- A/G (9 h): 1.3
- ALP (9 h): 1636.4 IU/L
- ALT (9 h): 56.8 IU/L
- AST (9 h): 109.6 IU/L
- BUN (9 h): 12.8 mg/dL
- CRE (9 h): 0.2 mg/dL
- Ca (9 h): 10.4 mg/dL
- Cl (9 h): 106.4 meq/L
- DBIL (9 h): 0 mg/dL
- GLC (9 h): 180.4 mg/dL
- IP (9 h): 7.9 mg/dL
- K (9 h): 4.3 meq/L
- LDH (9 h): 158.2 IU/L
- Na (9 h): 140.4 meq/L
- PL (9 h): 144 mg/dL
- RALB (9 h): 2.9 g/dL
- TBIL (9 h): 0.008 mg/dL
- TC (9 h): 97.4 mg/dL
- TG (9 h): 63.2 mg/dL
- TP (9 h): 5.1 g/dL
- gamma-GTP (9 h): 1.6 IU/L
- TERMINAL_BW (24 h): 220.3 g
- APTT (24 h): 21.7 s
- Bas (24 h): 0%
- Eos (24 h): 0.8%
- Fbg (24 h): 304.4 mg/dL
- Hb (24 h): 12.5 g/dL
- Ht (24 h): 39.6%
- Lym (24 h): 81.2%
- MCH (24 h): 20.3 pg
- MCHC (24 h): 31.7%
- MCV (24 h): 64 fL
- Mono (24 h): 1.8%
- Neu (24 h): 15.6%
- PT (24 h): 15.4 s
- Plat (24 h): 119.9 x10_4/uL
- RBC (24 h): 619.8 x10_4/ul
- Ret (24 h): 7.6%
- WBC (24 h): 71.5 x10_2/uL
- KIDNEY_L (24 h): 1 g
- KIDNEY_R (24 h): 1 g
- KIDNEY_TOTAL (24 h): 2.1 g
- LIVER (24 h): 10.2 g
- A/G (24 h): 1.2
- ALP (24 h): 1849.4 IU/L
- ALT (24 h): 45 IU/L
- AST (24 h): 81.6 IU/L
- BUN (24 h): 15.2 mg/dL
- CRE (24 h): 0.1 mg/dL
- Ca (24 h): 10.7 mg/dL
- Cl (24 h): 106.8 meq/L
- DBIL (24 h): 0.002 mg/dL
- GLC (24 h): 189.2 mg/dL
- IP (24 h): 8.2 mg/dL
- K (24 h): 4.4 meq/L
- LDH (24 h): 191 IU/L
- Na (24 h): 141.6 meq/L
- PL (24 h): 147.2 mg/dL
- RALB (24 h): 2.8 g/dL
- TBIL (24 h): 0.002 mg/dL
- TC (24 h): 95.8 mg/dL
- TG (24 h): 74 mg/dL
- TP (24 h): 5.3 g/dL
- gamma-GTP (24 h): 1.6 IU/L

From ChEMBL document CHEMBL3885861, “Open TG-GATES”
